Assay results published in US20050180962A1, “Inactivated probiotic bacteria and methods of use thereof” (priority 2003, published 2005).

What was measured:
DSS-induced colitis = DSS-induced colitis (DSS 3.5% in drinking water, 7 days); assay type: in vivo, Balb/c mice; design: key to Histological Score: summed histological score, 0 (minimum) to 20 (maximum); settings: for MPO / Histological Score / Disease Activity Score: mean±SEM
Protocol: To induce dextran sodium sulfate (DSS) colitis, DSS (Sigma) was given in the drinking water for 7 days. Preliminary studies were performed to identify the concentration of DSS in the drinking water required to elicit a similar disease activity score in different mouse strains.
(§1) Mice were sacrificed 7 days after the induction of colitis. All studies were performed in a blind fashion.
Probiotics, including live probiotics, irradiated probiotics, and heat killed probiotics, were intragastrically (i.g.) given starting 10 days prior to the induction of colitis and for 7 days thereafter. In preliminary studies, mice were treated daily by i.g. administration of 0.28×10^8, 2.8×10^8 or 28×10^8 CFU of irradiated probiotics per mouse per day.
(§2) In another experiment 50 μg of these DNA preparations were administered i.g. or intrarectally (i.r.) 2 hrs prior to DSS administration. In the IL-10 deficient colitis model, ten-week old mice were treated s.c. once a week with the various DNA preparations (see above), and this treatment continued for 4 weeks as described (Rachmilewitz et al. (2002) supra). The disease-activity score, histological score, and colonic myeloperoxidase (MPO) activity were determined as described (Rachmilewitz et al. (2002) supra).
A mouse model of colitis was used and assessed, as described. Rachmilewitz et al. (2002) Gastroenterology 122:1428-1441. Colitis was induced by adding dextran sodium sulfate (DSS, Sigma), 3.5% to the drinking water, and allowing them to drink ad libitum. Seven days after induction of colitis, mice were weighed and inspected for diarrhea and rectal bleeding. The mice were sacrificed, and the entire colon was dissected and its length measured and weighed. Scores were again defined as follows: Changes in body weight: No loss—0; 5 to 10%—1; […], —2; 15 to 20%, —3; >20%—4. Hemoccult: No blood, —0; positive, —2; gross blood, —4. Mucosal samples were processed for determination of MPO activity according to: Bradley (1982) J Invest Dermatol 78:206-9.
When indicated, sections from the distal colon were fixed in buffered formalin and routine 5 μm sections were prepared and stained with hematoxylin and eosin. Stained sections were examined blindly and scored. The scoring system took into account the depth of the ulcer, the extent of the ulcer, presence of inflammation, extent of inflammation, and location of fibrosis. Minimal score was 0 and maximal score was 20. Scoring was as follows for depth of the ulcer: 0=no ulcer; 1—mucosal involvement; 2—mucosal+submucosal involvement; 3=penetration of muscularis propria; 4=full thickness involvement. Scoring was as follows for extent of the ulcer: 0=no ulcer; 1=punctate; 2=minimal; 3=moderate; 4=widespread. Scoring was as follows for presence of inflammation: 0=none; 1=minimal; 2=mild; 3=moderate; 4=severe. Scoring was as follows for extent of inflammation: 0=none; 1=mucosal; 2=mucosal+submucosal involvement; 3=mucosal+submucosal+muscle penetration; 4=full thickness involvement. Scoring was as follows for location of fibrosis: 0=none; 1=mucosa only; 2=mucosa+submucosa; 3=including muscle layer; 4=full thickness fibrosis.
Fifty mg colonic mucosal scrapings were homogenized with a polytron (Kinematica GmbH, Krienz-Luzem, Switzerland) in ice-cold hexadecyltrimethyl ammonium bromide (0.5%) in 50 mM phosphate buffer, pH 6.0. The homogenate was sonicated for 10 seconds, freeze-thawed three times, and centrifuged for 15 minutes. An aliquot of the supernatant was taken for determination of myeloperoxidase (MPO) enzyme activity, as described (Rachmilewitz et al. (2002) supra).

commensal flora = assay: Effect of chloroquine on stool flora of mice; assay type: in vivo; settings: 10 mg/kg s.c. daily for 7 days versus saline
Protocol: Control group was treated s.c. daily with 0.2 ml of saline. After 7 days, stool samples were collected, homogenized and cultured on blood, Maconkey, phenylethanol, chocolate, M.R.S., and anaerobic agars.

TNBS-induced colitis = assay: TNBS-induced colitis; assay type: in vivo, Balb/c mice; settings: s.c. once 2 hours before TNBS; day 7; mean±SEM
Protocol: Trinitrobenzenesulfonic acid (TNBS) colitis was induced in 8 week old, Balb/c mice by rectal instillation of 0.5 mg/mouse of 2,4,6-trinitrobenzene sulfonic acid (Sigma) dissolved in 0.1 ml of 50% ethanol as described. Rachmilewitz et al. (2002), supra.
as §1
as §2, with “Various DNA preparations (ISS-ODN and control-ODN, 30 μg/mouse; probiotic DNA, methylated probiotic DNA, E. coli DNA and calf thymus DNA, 50 μg/mouse) and DNase treated probiotics (i.e., the amount of microorganisms that yielded 50 μg of probiotic DNA) were s.c. injected 2 hrs prior to the administration of DSS or TNBS. In another” for “In another”

[1] = system: chronic DSS-induced colitis; assay: Chronic DSS-induced colitis (treatment model); assay type: in vivo, Balb/c mice
Protocol: To evaluate whether probiotics are effective not only in the prevention but also in the treatment of colitis the following experiment was performed: Mice were treated for 7 days with DSS 3.5% added to the drinking water. From the 8th day until sacrifice on day 15, the concentration of DSS in the drinking water was reduced to 1.75%. During the 15 days of the experiment, 2 groups of mice were treated daily i.g. with viable or with irradiated probiotics 2.8×10^8 CFU. A third group was treated s.c. on day 8 with ISS-ODN (10 μg) and a fourth control group was treated i.g. daily with 0.2 ml of saline. […] The colon was isolated, weighed, sections were taken for histology and mucosal samples were obtained for MPO determination.

[2] = system: spontaneous colitis in IL-10 KO mice; assay: Spontaneous colitis in IL-10 KO mice; assay type: in vivo, IL-10 KO mice (B6); settings: s.c. once a week for 4 weeks; mean±SEM
Protocol: as §2, with “Various DNA preparations (ISS-ODN and control-ODN, 30 μg/mouse; probiotic DNA, methylated probiotic DNA, E. coli DNA and calf thymus DNA, 50 μg/mouse) and DNase treated probiotics (i.e., the amount of microorganisms that yielded 50 μg of probiotic DNA) were s.c. injected 2 hrs prior to the administration of DSS or TNBS. In another” for “In another”

TLR9 = assay: IL-12 (p40) and IL-6 secretion by macrophages (ELISA); assay type: cell-based, mice; settings: TLR9 null macrophages, 24 hours post-stimulation
[3] = i.g., 50 μg once 2 hours before DSS
[4] = s.c. once 2 hours before DSS, ODNs 30 μg/mouse, DNAs 50 μg/mouse
[5] = i.r., 50 μg once 2 hours before DSS
[6] = DSS 3.5% 7 days then 1.75% 7 days, probiotics 2.8×10^8 CFU i.g. daily, ISS-ODN 10 μg s.c. day 8, day 15, mean±SEM

Row | Molecule | Disease Activity Score (DSS-induced colitis; [3]) | Histological Score (DSS-induced colitis; [3]) | MPO (DSS-induced colitis; [3]) [U/gr] | Disease Activity Score (DSS-induced colitis; [4]) | Histological Score (DSS-induced colitis; [4]) | MPO (DSS-induced colitis; [4]) [U/gr] | Disease Activity Score (TNBS-induced colitis) | Histological Score (TNBS-induced colitis) | MPO (TNBS-induced colitis) [U/gr] | other results
1 | CCN(CC)CCCC(C)Nc1ccnc2cc(Cl)ccc12 (stereo not drawn) [Chloroquine, chloroquine] | – | – | – | – | – | – | – | – | – | MPO (DSS-induced colitis; colonic MPO, probiotics 2.8×10^8 CFU i.g. daily, chloroquine 10 mg/kg s.c. daily, DSS 3.5% 7 days): 1.54 ± 0.16 U/gr; Histological Score (DSS-induced colitis; probiotics 2.8×10^8 CFU i.g. daily, chloroquine 10 mg/kg s.c. daily, DSS 3.5% 7 days): 8.0 ± 0.8; identity or quantity of bacterial strains grown from the stool (commensal flora): No significant differences
2 | 5′-TGACTGTG AAGGTTAGAGATGA-3 (DNA TGACTGTGAAGGTTAGAGATGA; DNA, all phosphorothioate, methylation of C not given here) [Control-ODN] | 6.7 ± 0.8 | 5.7 ± 0.3 | 1.90 ± 0.20 | 3.8 ± 0.7 | 8.0 ± 0.9 | 4.2 ± 0.8 | 1.3 ± 0.2 | 4.8 ± 1.8 | 2.00 ± 0.30 | –
3 | 5′-TGACTGTGAACGTTCGAGATGA-3′ [ISS-ODN] | 3.6 ± 0.7 | 2.8 ± 0.6 | 1.09 ± 0.10 | 0.4 ± 0.4 | 0 ± 0 | 0.9 ± 0.1 | 0.4 ± 0.3 | 0 ± 0 | 0.8 ± 0.10 | outcome of colitis (DSS-induced colitis; i.r. administration, once 2 hrs before DSS): had no effect; Disease Activity Score (DSS-induced colitis; [5]): 6.3 ± 0.7; Histological Score (DSS-induced colitis; [5]): 5.9 ± 0.7; MPO (DSS-induced colitis; [5]): 1.90 ± 0.30 U/gr; severity of DSS-induced colitis (DSS-induced colitis; intragastric or s.c. administration, once 2 hrs before DSS): inhibited the severity; Disease Activity Score [1, 6]: 1.1 ± 0.4; Histological Score [1, 6]: 6.9 ± 0.8; MPO [1, 6]: 1.25 ± 0.19 U/gr; severity of chronic DSS induced colitis ([1]; given with or after induction of colitis): equally attenuate the severity; Histological Score [2]: 1.8 ± 1.2; MPO [2]: 0.8 ± 0.10 U/gr; secretion of p40 or IL-6 (TLR9): did not induce
